Laboratory results from paper PMC11242993, “Evaluation of the Therapeutic Potential of Sulfonyl Urea Derivatives as Soluble Epoxide Hydrolase (sEH) Inhibitors” (Molecules, 2024).

molecular target: T1, human recombinant sEH (Homo sapiens, UniProt P34913); test: Fluorescence-based sEH activity assay (PHOME substrate), human enzyme; assay type: biochemical
T1 construct: purchased Cayman Chemical 10011671
T1 sequence (P34913 1-555): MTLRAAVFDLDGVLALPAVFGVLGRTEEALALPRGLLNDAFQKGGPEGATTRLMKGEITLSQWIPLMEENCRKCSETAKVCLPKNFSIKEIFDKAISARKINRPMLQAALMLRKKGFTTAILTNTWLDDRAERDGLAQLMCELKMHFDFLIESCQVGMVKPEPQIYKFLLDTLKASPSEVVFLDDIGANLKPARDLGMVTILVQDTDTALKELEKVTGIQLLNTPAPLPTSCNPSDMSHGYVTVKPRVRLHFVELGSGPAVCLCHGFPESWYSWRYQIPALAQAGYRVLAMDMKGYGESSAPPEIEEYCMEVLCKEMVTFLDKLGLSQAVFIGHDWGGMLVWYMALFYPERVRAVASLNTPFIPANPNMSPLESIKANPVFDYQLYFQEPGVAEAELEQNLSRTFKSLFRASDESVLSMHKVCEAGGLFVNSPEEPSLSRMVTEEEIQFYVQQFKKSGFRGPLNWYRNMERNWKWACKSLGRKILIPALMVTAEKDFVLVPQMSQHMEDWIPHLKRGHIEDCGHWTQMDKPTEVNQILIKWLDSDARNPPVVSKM
Procedure: A fluorescence-based sEH activity assay provided a convenient method for screening human epoxide hydrolase inhibitors. The assay utilized (3-Phenyl-oxiranyl)-acetic acid cyano-(6-methoxy-naphthalen-2-yl)-methyl ester (PHOME) as a substrate. […] The inhibitory function of the compounds on sEH activity was tested as detailed in the product manual from Cayman Chemical. Briefly, 3 mL sEH assay buffer (10×) was diluted with 27 mL HPLC-grade water. This final assay buffer, 25 mM bis-tris (pH 7.0), was used in the assay and for the dilution of the soluble epoxide hydrolase (sEH) enzyme. Amounts of 12 μL each of human and mouse recombinant sEH were thawed on ice. Prior to assaying, 588 μL cold assay buffer was added directly to the enzyme vial. An amount of 190 μL assay buffer and 5 μL solvent (40% DMSO in assay buffer) were added to the background wells. In the 100% initial activity wells, 185 μL assay buffer, 5 μL sEH, and 5 μL solvent were added. In inhibitor wells, 185 μL assay buffer, 5 μL solution of the synthesized compounds, and 5 μL of recombinant enzyme solution were added.
Average fluorescence (AF) of the background wells and 100% initial activity in the wells and of each of the inhibitors were determined. The background AF was subtracted from the 100% initial activity and inhibitor AFs. The % sEH activity is calculated as (inhbitited AF/% 100 initial activity) × 100.
Multiple concentrations of the inhibitors were tested followed by plotting of the percent activity as a function of inhibitor concentration to determine the IC50 values.

Row | SMILES | Human sEH % Inhibition [%] | human sEH inhibitory activity (in words)
1 | O=C(NC12CC3CC(CC(C3)C1)C2)NS(=O)(=O)c1ccc(C(F)(F)F)cc1 [Compound 4c, N-((adamantan-1-yl)carbamoyl)-4-(trifluoromethyl)benzenesulfonamide] | 34.06 | –
2 | CC(C)(C)c1ccc(S(=O)(=O)NC(=O)NC23CC4CC(CC(C4)C2)C3)cc1 [Compound 4d] | 32.7 | –
3 | O=C(NC12CC3CC(CC(C3)C1)C2)NS(=O)(=O)c1cccc(OC(F)(F)F)c1 [Compound 4g, N-((adamantan-1-yl)carbamoyl)-3-(trifluoromethoxy)benzenesulfonamide] | 1.65 | sEH inhibition decreased to a significant extent
4 | O=C(NC12CC3CC(CC(C3)C1)C2)NS(=O)(=O)c1ccccc1OC(F)(F)F [Compound 4h, N-((adamantan-1-yl)carbamoyl)-2-(trifluoromethoxy)benzenesulfonamide] | 6.28 | sEH inhibition decreased to a significant extent
5 | N#Cc1ccc(S(=O)(=O)NC(=O)NC23CC4CC(CC(C4)C2)C3)cc1 [Compound 4i, N-((adamantan-1-yl)carbamoyl)-4-cyanobenzenesulfonamide] | 19.36 | –
6 | CC(C)(C)c1ccc(S(=O)(=O)NC(=S)NC23CC4CC(CC(C4)C2)C3)cc1 [Compound 6b, N-((adamantan-1-yl)carbamothioyl)-4-(tert-butyl)benzenesulfonamide] | 1.80 | –
7 | COc1ccc(S(=O)(=O)NC(=S)NC23CC4CC(CC(C4)C2)C3)cc1 [Compound 6c, N-((adamantan-1-yl)carbamothioyl)-4-methoxybenzenesulfonamide] | 2.50 | –
8 | CS/C(=N\S(=O)(=O)c1ccc(OC(F)(F)F)cc1)NC12CC3CC(CC(C3)C1)C2 [Compound 7] | 32.83 | –
9 | N/C(=N\S(=O)(=O)c1ccc(OC(F)(F)F)cc1)NC12CC3CC(CC(C3)C1)C2 [Compound 8a] | 40.19 | –
10 | CN/C(=N\S(=O)(=O)c1ccc(OC(F)(F)F)cc1)NC12CC3CC(CC(C3)C1)C2 [Compound 8b] | 13.06 | –
11 | CNN/C(=N\S(=O)(=O)c1ccc(OC(F)(F)F)cc1)NC12CC3CC(CC(C3)C1)C2 [Compound 9b] | 9.83 | –
12 | O=S(=O)(/N=C(\NNc1ccccc1)NC12CC3CC(CC(C3)C1)C2)c1ccc(OC(F)(F)F)cc1 [Compound 9c] | 4.71 | –
13 | CN(C)N/C(=N\S(=O)(=O)c1ccc(OC(F)(F)F)cc1)NC12CC3CC(CC(C3)C1)C2 [Compound 9d] | 7.65 | –
14 | Cc1ccc(S(=O)(=O)NC(=O)NC23CC4CC(CC(O)(C4)C2)C3)cc1 [Compound 10a, N-((3-hydroxyadamantan-1-yl)carbamoyl)-4-methylbenzenesulfonamide] | 22.47 | –
15 | O=C(NC12CC3CC(CC(O)(C3)C1)C2)NS(=O)(=O)c1ccc(C(F)(F)F)cc1 [Compound 10b, N-((-3-hydroxyadamantan-1-yl)carbamoyl)-4-(trifluoromethyl)benzenesulfonamide] | 21.26 | –
16 | CC(C)(C)c1ccc(S(=O)(=O)NC(=O)NC23CC4CC(CC(O)(C4)C2)C3)cc1 [Compound 10c, 4-(tert-butyl)-N-((-3-hydroxyadamantan-1-yl)carbamoyl)benzenesulfonamide] | 3.08 | –
17 | O=C(NC12CC(C1)C2)NS(=O)(=O)c1ccc(OC(F)(F)F)cc1 [Compound 11a, N-(bicyclo [1.1.1]pentan-1-ylcarbamoyl)-4-(trifluoromethoxy)benzenesulfonamide] | 4.28 | –
18 | N#CC12CC(NC(=O)NS(=O)(=O)c3ccc(OC(F)(F)F)cc3)(C1)C2 [Compound 11b, N-((3-cyanobicyclo [1.1.1]pentan-1-yl)carbamoyl)-4-(trifluoromethoxy)benzenesulfonamide] | 7.47 | –
19 | O=C(NC12CC(F)(C1)C2)NS(=O)(=O)c1ccc(OC(F)(F)F)cc1 [Compound 11c, N-((3-fluorobicyclo [1.1.1]pentan-1-yl)carbamoyl)-4-(trifluoromethoxy)benzenesulfonamide] | 1.67 | –
20 | O=C(NC1C2CC3CC(C2)CC1C3)NS(=O)(=O)c1ccc(OC(F)(F)F)cc1 (stereo not shown) [Compound 12, N-((adamantan-2-yl)carbamoyl)-4-(trifluoromethoxy)benzenesulfonamide] | 34.53 | none of them showed any activity
21 | O=C(NS(=O)(=O)c1ccc(OC(F)(F)F)cc1)N1CCC(C(F)(F)F)CC1 [Compound 13, N-((4-(trifluoromethoxy)phenyl)sulfonyl)-4-(trifluoromethyl)piperidine-1-carboxamide] | 2.75 | none of them showed any activity
22 | O=C(NC1CCCCC1)NS(=O)(=O)c1ccc(OC(F)(F)F)cc1 [Compound 14, N-(cyclohexylcarbamoyl)-4-(trifluoromethoxy)benzenesulfonamide] | 32.26 | none of them showed any activity
23 | CC(C)(C)OC(=O)N1CCC(NC(=O)NS(=O)(=O)c2ccc(OC(F)(F)F)cc2)CC1 [Compound 16, tert-butyl 4-(3-((4-(trifluoromethoxy)phenyl)sulfonyl)ureido)piperidine-1-carboxylate] | 23.03 | none of them showed any activity
24 | O=C(NC1CCNCC1)NS(=O)(=O)c1ccc(OC(F)(F)F)cc1 [Compound 17, N-(piperidin-4-ylcarbamoyl)-4-(trifluoromethoxy)benzenesulfonamide] | 32.02 | none of them showed any activity
